Results on 3 molecules are retold here after US11834431B2, “Crystals of cyclic amine derivative and pharmaceutical use thereof” (Toray Industries, Inc., priority 2016, dated 2023).

A short description of data set [1]: Evaluation of storage stability, Form A crystal versus amorphous matter (HPLC purity). Conditions: airtight state. The format is physicochemical.
Data set [2] can be described thus: Dissolution of amorphous matter in various solvents (selection of crystallization solvents). Format: physicochemical. The method, then: The amorphous matter (10 mg) of compound (I) was weighed into a borosilicate glass vial, each solvent in Table 3 was added at the corresponding amount of solvent added in Table 3, and confirmed whether or not the amorphous matter was dissolved. […] Subsequently, the vial was shaken at room temperature in an airtight state for 7 days. However, no solid precipitated in either case. […] It was therefore judged that they were unsuitable as a crystallization solvent.

The nature of data set [3]: Evaluation of hygroscopicity (equilibrium moisture measurement). The note with it: 30° C. The format is physicochemical. The method, then:
Equilibrium moisture measurement was performed on Form A crystal and the amorphous matter of compound (I) under the following conditions using a fully automated symmetric vapor sorption analyzer (TA Instruments Inc.; VTI-SA+). […] The change in appearance was also observed.

Data set [4] can be described thus: Evaluation of solubility in Japanese Pharmacopoeia test fluids. The format is physicochemical. Conditions: aqueous buffer, thermodynamic from solid; 2nd fluid for disintegration test of the Japanese Pharmacopoeia 16th edition (pH 6.8), 37° C., 30 minutes; read-out: Solubility (37° C.). The method, then:
Form A crystal of compound (I) (100 mg) was weighed into a borosilicate glass vial, and the 1st fluid for disintegration test/1st fluid for dissolution test of the Japanese Pharmacopoeia 16th edition (pH 1.2)(1 mL) or the 2nd fluid for disintegration test of the Japanese Pharmacopoeia 16th edition (pH 6.8)(1 mL) was added in a temperature and humidity test chamber (Amefrec Co., Ltd.; NO DOORα) adjusted to 37° C., followed by stirring. Form B crystal of ethane disulfonate of compound (I) (10 mg) was weighed into a borosilicate glass vial, and the 2nd fluid for disintegration test of the Japanese Pharmacopoeia 16th edition (pH 6.8) (0.1 mL) was added in a temperature and humidity test chamber (Amefrec Co., Ltd.; NO DOORα) adjusted to 37° C., followed by stirring. After 30 minutes, the inside of each vial was visually checked, and it was confirmed that each crystal was completely dissolved.

Data set [5] has as its system spinal nerve ligation model rats (neuropathic pain model rats). The data set is described as follows: Analgesic effect on allodynia in spinal nerve ligation model rats (von Frey, 50% response threshold). Conditions: oral 10 mg/kg, measured 3 hours after administration, 8 days after ligation, compared to negative control group. Format: in vivo, rat. The method, then: Analgesic effects of the crystal of compound (I) or the pharmacologically acceptable salt thereof upon neuropathic pain were evaluated using spinal nerve ligation model rats (Kim and Chung, Pain, 1992, vol. 50, p. 355). Form A crystal of compound (I) was used as a crystal of compound (I) or the pharmacologically acceptable salt thereof for evaluation.
The above model rats were prepared as follows. In experiments, 6-to 7-week-old SD male rats were used for 5 to 7 cases per group, and the lumbar skin and muscle of each rat were dissected to expose the L5 and L6 […] under inhalation anesthesia with isoflurane. After ligating the L5 and L6 spinal nerves with silk suture, the wound of each rat was sutured. Thus, a nerve ligation group was prepared. The group in which the nerve was exposed but not ligated was determined to be a sham surgery group.
Allodynia observed in spinal nerve ligation model rats was measured using a von Frey filaments according to a method described in a known publication (Chaplan et al., J. Neurosci. Methods, 1994, vol. 53, p. 55) and a 50% response threshold (g) was determined. Eight days after the ligation surgery, allodynia of the nerve ligation group was measured before oral administration of Form A crystal of compound (I). Rats with a 50% response threshold (average value of the right hind paw and the left hind paw) of 2 g to less than 6 g were considered to have developed allodynia. The rats were divided as neuropathic pain model rats into groups such that there was no significant difference in the 50% response threshold between groups. Allodynia was measured 3 hours after the oral administration of Form A crystal of compound (I), and the analgesic effect was evaluated. Pregabalin was used as a positive control.
Form A crystal of compound (I) was dissolved in water for injection (distilled water) to result in concentrations of 5, 10, and 20 mg/mL, and orally administered in a dose volume of 1 mL per kg body weight. Pregabalin was dissolved in water for injection (distilled water) to result in a concentration of 10 mg/mL and orally administered in a dose volume of 1 mL per kg of body weight. Water for injection (distilled water) was orally administered to the sham surgery group. A group in which water for injection (distilled water) was orally administered to rats in the nerve ligation group was defined as a negative control group.
The horizontal axis represents the solution to be administered in each group, namely, the nerve ligation group or sham surgery group, and the vertical axis represents the 50% response threshold (g) (mean±standard error, n=5 to 7). […]

Another data set concerns fibromyalgia model rats. The data set is described as follows: Analgesic effect on allodynia in fibromyalgia model rats (von Frey, 50% response threshold). Conditions: oral 10 mg/kg, measured 3 hours after administration, Day 7, compared to negative control group. The format is in vivo, rat. The method, then: The analgesic effect of the crystal of compound (I) or the pharmacologically acceptable salt thereof against fibromyalgia syndrome was evaluated using fibromyalgia model rats (Sluka et al., Journal of Pharmacology and Experimental Therapeutics, 2002, vol. 302, pp. 1146-1150; Nagakura et al., Pain, 2009, vol. 146, pp. 26-33; Sluka et al., Pain, 2009, vol. 146, pp. 3-4). Form A crystal of compound (I) was used as a crystal of compound (I) or the pharmacologically acceptable salt thereof for evaluation.
The above model rats were prepared as follows. In experiments, 6-to 7-week-old SD male rats were used for 5 or 6 cases per group. 100 μL of acidic physiological saline adjusted to pH 4.0 was administered twice to the gastrocnemius muscle of the right hind paw of each rat (the day of the administration of acidic physiological saline was defined as Day 1 after the start of the experiment, and single dose administrations were carried out on Days 1 and 6 after the start of the experiment) under inhalation anesthesia with isoflurane. The thus prepared group was determined to be an acidic physiological saline group. As a control for the model, a group treated with a physiological saline instead of an acidic physiological saline was determined to be a physiological saline group.
Allodynia observed in fibromyalgia model rats was measured using a von Frey filaments according to a method described in a known publication (Chaplan et al., Journal of Neuroscience Methods, 1994, vol. 53, pp. 55-63) and a 50% response threshold (g) was determined. On Day 7 after the start of the experiment, allodynia was measured 3 hours after oral administration of Form A crystal of compound (I), and the analgesic effect was evaluated. Allodynia of the acidic physiological saline group was measured before oral administration of Form A crystal of compound (I). […] Allodynia was measured 3 hours after the oral administration of the crystal of compound (I), and the analgesic effect was evaluated. […]

Setting [6] is: 40° C., relative humidity 75%, 8 weeks.

Regarding `CN(C)C1CCN(C(=O)C[C@H](O)c2nccn2C)CC1` [Amorphous matter, (S)-1-(4-(dimethylamino)piperidin-1-yl)-3-hydroxy-3-(1-methyl-1H-imidazol-2-yl)propan-1-one], the “Chemical purity, After storage” value in data set [1] (setting [6]) was found to be 97.2%; in data set [1] (60° C., 4 weeks) it was 91.5%. Also, the “Decomposition product increased by not less than 0.15% after storage” value was found to be 4 different in data set [1] (setting [6]) and 7 different in data set [1] (60° C., 4 weeks). Moreover, the “Optical purity, After storage” value was 98.7 % ee in data set [1] (setting [6]) and 98.9 % ee in data set [1] (60° C., 4 weeks). The Appearance of solution entry in data set [2] (1-Butanol, 0.02 mL added, 500 mg/mL) was “Soluble”; in data set [2] (1-Propanol, 0.02 mL added, 500 mg/mL) it was “Soluble”; in data set [2] (2-Butanone, 0.02 mL added, 500 mg/mL), “Soluble”; in data set [2] (2-Propanol, 0.005 mL added, 2000 mg/mL) it was “Soluble”; in data set [2] (2-Propanol, 0.02 mL added, 500 mg/mL) it was “Soluble”; in data set [2] (4-Methyl-2-pentanone, 0.02 mL added, 500 mg/mL) it was “Soluble”. In addition, the Appearance of solution result was “Soluble” in data set [2] (Acetone, 0.01 mL added, 1000 mg/mL); “Soluble” in data set [2] (Acetone, 0.02 mL added, 500 mg/mL); “Soluble” in data set [2] (Acetonitrile, 0.005 mL added, 2000 mg/mL); “Soluble” in data set [2] (Acetonitrile, 0.02 mL added, 500 mg/mL); “Soluble” in data set [2] (Chlorobenzene, 0.02 mL added, 500 mg/mL); “Soluble” in data set [2] (Chloroform, 0.005 mL added, 2000 mg/mL). Moreover, the Appearance of solution entry is “Soluble” in data set [2] (Chloroform, 0.02 mL added, 500 mg/mL); “Insoluble” in data set [2] (Cyclohexane, 0.02 mL added, 500 mg/mL); “not dissolved at all” in data set [2] (Cyclohexane, 3 mL added, 3 mg/mL); “Insoluble” in data set [2] (Cyclohexane, 3 mL added, 3 mg/mL, listed as amorphous matter of compound (I)); “Soluble” in data set [2] (Ethanol, 0.02 mL added, 500 mg/mL); “Soluble” in data set [2] (Ethyl acetate, 0.005 mL added, 2000 mg/mL). Besides, the Appearance of solution result in data set [2] (Ethyl acetate, 0.01 mL added, 1000 mg/mL) is “Soluble”; in data set [2] (Ethyl acetate, 0.02 mL added, 500 mg/mL) it was “Soluble”; in data set [2] (Ethyl formate, 0.02 mL added, 500 mg/mL) it was “Soluble”; in data set [2] (Heptane, 0.02 mL added, 500 mg/mL), “Insoluble”; in data set [2] (Heptane, 3 mL added, 3 mg/mL) it was “not dissolved at all”; in data set [2] (Heptane, 3 mL added, 3 mg/mL, listed as amorphous matter of compound (I)), “Insoluble”. Moreover, the Appearance of solution result in data set [2] (Isobutyl acetate, 0.02 mL added, 500 mg/mL) was “Soluble”; in data set [2] (Isopropyl acetate, 0.02 mL added, 500 mg/mL) it was “Soluble”; in data set [2] (Methanol, 0.005 mL added, 2000 mg/mL), “Soluble”; in data set [2] (Methanol, 0.02 mL added, 500 mg/mL), “Soluble”; in data set [2] (Methyl acetate, 0.02 mL added, 500 mg/mL), “Soluble”; in data set [2] (Tetrahydrofuran, 0.01 mL added, 1000 mg/mL) it was “Soluble”. Further, the Appearance of solution result in data set [2] (Tetrahydrofuran, 0.02 mL added, 500 mg/mL) was “Soluble”; in data set [2] (Toluene, 0.005 mL added, 2000 mg/mL), “Soluble”; in data set [2] (Toluene, 0.02 mL added, 500 mg/mL), “Soluble”; in data set [2] (Water, 0.02 mL added, 500 mg/mL) it was “Soluble”. Moreover, the “concentration at which completely dissolved” value in data set [2] (each solvent in Table 3 (text summary; cyclohexane and heptane excepted)) was ≥ 500 mg/mL. In data set [3], the “relative humidity at which the substance deliquesced” value is recorded as “less than 5%”. For the same molecule, in data set [3] (humidification, listed as amorphous matter), the Change in appearance result was “turned into oil matter”.
The solubility is how much of the substance goes into solution per volume. For `CN(C)C1CCN(C(=O)C[C@H](O)c2nccn2C)CC1` [Form B crystal of ethane disulfonate, (S)-1-(4-(dimethylamino)piperidin-1-yl)-3-hydroxy-3-(1-methyl-1H-imidazol-2-yl)propan-1-one], the solubility at 30 min in data set [4] is > 100 mg/mL.
As to `CC(C)C[C@H](CN)CC(=O)O` [pregabalin, reference compound], the “improvement of allodynia (50% response threshold)” value (in data set [5]; in the data set with fibromyalgia model rats) was “significant improvement” each time.
